Common to all, as to format: in vivo
Experiment [1] concerns Echinochloa crus-galli (ECHCG). The experiment is described as follows: Example A post-emergence herbicidal activity, glasshouse pot test. The following applies: 360 h, rate 125 g/ha, evaluated 15 days after spraying, read-out: Post-emergence activity ECHCG (100=total damage to plant; 0=no damage to plant). How it is done:
(§1) Seeds of a variety of test species were sown in standard soil in pots. After cultivation for one day (pre-emergence) or after 10 days cultivation (post-emergence) under controlled conditions in a glasshouse, the plants were sprayed with an aqueous spray solution derived from the formulation of the technical active ingredient in 0.6 ml acetone and 45 ml formulation solution containing 10.6% Emulsogen EL (Registry number 61791-12-6), 42.2% N-methylpyrrolidone, 42.2% dipropylene glycol monomethyl ether (Registry number 34590-94-8) and 0.2% X-77 (Registry number 11097-66-8). The test plants were then grown in a greenhouse under optimum conditions until, 15 days later for post-emergence and 20 days for pre-emergence, the test was evaluated (100=total damage to plant; 0=no damage to plant).
(§2) Alopecurus myosuroides (ALOMY), Avena fatua (AVEFA), Lolium perenne (LOLPE), Setaria faberi (SETFA), Digitaria sanguinalis (DIGSA), Echinochloa crus-galli (ECHCG)

Experiment [2] relates to Alopecurus myosuroides (ALOMY). The experiment is described as above. The settings on record: 360 h, rate 125 g/ha, evaluated 15 days after spraying, read-out: Post-emergence activity ALOMY (100=total damage to plant; 0=no damage to plant). How it is done:
as §1, §2

In experiment [3] the test system is Avena fatua (AVEFA). The experiment is described as above. The settings on record: 360 h, rate 125 g/ha, evaluated 15 days after spraying, read-out: Post-emergence activity AVEFA (100=total damage to plant; 0=no damage to plant). As for the experimental part: as §1, §2
Experiment [4] deals with Digitaria sanguinalis (DIGSA). Described as above. The settings on record: 360 h, rate 125 g/ha, evaluated 15 days after spraying, read-out: Post-emergence activity DIGSA (100=total damage to plant; 0=no damage to plant). As for the experimental part: as §1, §2
The subject of experiment [5] is Setaria faberi (SETFA). Described as above. The settings on record: 360 h, rate 125 g/ha, evaluated 15 days after spraying, read-out: Post-emergence activity SETFA (100=total damage to plant; 0=no damage to plant). As for the experimental part:
as §1, §2

In experiment [6] the test system is Lolium perenne (LOLPE). Described as above. The following applies: 360 h, rate 125 g/ha, evaluated 15 days after spraying, read-out: Post-emergence activity LOLPE (100=total damage to plant; 0=no damage to plant). How it is done: as §1, §2
Experiment [7] has as its system Echinochloa crus-galli (ECHCG). The experiment is described as follows: Example A pre-emergence herbicidal activity, glasshouse pot test. The following applies: 480 h, evaluated 20 days after spraying, read-out: Pre-emergence activity ECHCG (100=total damage to plant; 0=no damage to plant); for pest or weed control at 500 g/ha: rate 500 g/ha; for pest or weed control at 250 g/ha: rate 250 g/ha. How it is done: as §1, §2

The subject of experiment [8] is Alopecurus myosuroides (ALOMY). The description is as above. The settings on record: 480 h, evaluated 20 days after spraying, read-out: Pre-emergence activity ALOMY (100=total damage to plant; 0=no damage to plant); for pest or weed control at 500 g/ha: rate 500 g/ha; for pest or weed control at 250 g/ha: rate 250 g/ha. As for the experimental part: as §1, §2
In experiment [9] the test system is Avena fatua (AVEFA). The experiment is described as above. The following applies: 480 h, evaluated 20 days after spraying, read-out: Pre-emergence activity AVEFA (100=total damage to plant; 0=no damage to plant); for pest or weed control at 500 g/ha: rate 500 g/ha; for pest or weed control at 250 g/ha: rate 250 g/ha. How it is done:
as §1, §2

For experiment [10], the system named is Digitaria sanguinalis (DIGSA). The experiment is described as above. The settings on record: 480 h, evaluated 20 days after spraying, read-out: Pre-emergence activity DIGSA (100=total damage to plant; 0=no damage to plant); for pest or weed control at 500 g/ha: rate 500 g/ha; for pest or weed control at 250 g/ha: rate 250 g/ha. How it is done: as §1, §2
The test system of experiment [11] is Setaria faberi (SETFA). Described as above. The following applies: 480 h, evaluated 20 days after spraying, read-out: Pre-emergence activity SETFA (100=total damage to plant; 0=no damage to plant); for pest or weed control at 500 g/ha: rate 500 g/ha; for pest or weed control at 250 g/ha: rate 250 g/ha. As for the experimental part:
as §1, §2

Experiment [12] concerns Lolium perenne (LOLPE). The experiment is described as above. The following applies: 480 h, evaluated 20 days after spraying, read-out: Pre-emergence activity LOLPE (100=total damage to plant; 0=no damage to plant); for pest or weed control at 500 g/ha: rate 500 g/ha; for pest or weed control at 250 g/ha: rate 250 g/ha. How it is done: as §1, §2

Pest or weed control data for nine compounds are collected here from US8680012B2, “4-phenyl-pyrane-3,5-diones,4-phenyl-thiopyrane-3,6-diones and cyclohexanetriones as novel herbicides” (Syngenta Crop Protection LLC, priority 2006, dated 2014).

`Cc1ccc(-c2ccc(Cl)cc2)cc1C1=C(O)COC(C)(C)C1=O` (single isomer, unassigned) [Compound A-1]: the pest or weed control at 125 g/ha in experiment [1] was 70%; in experiment [2], 10%; with Avena fatua (AVEFA) [3], 0%; in experiment [4], 0%; in the experiment with Setaria faberi (SETFA) [5], 50%; with Lolium perenne (LOLPE) [6], 80%. Further, the pest or weed control at 500 g/ha in [7] stood at 50%; in [8], 40%; with Avena fatua (AVEFA) [9], 10%; in [10], 70%; with Setaria faberi (SETFA) [11] it was 70%; in the experiment with Lolium perenne (LOLPE) [12] it was 10%.

For the compound `CCc1ccc(-c2ccc(Cl)c(C)c2)cc1C1=C(O)C(C)(C)OC(C)(C)C1=O` [Compound A-44], the pest or weed control at 125 g/ha turned out to be 100% in experiment [1]; 40% in experiment [2]; 60% in the experiment with Avena fatua (AVEFA) [3]; 70% in experiment [4]; 30% in the experiment on Setaria faberi (SETFA) [5]; 60% with Lolium perenne (LOLPE) [6]. For the same compound, the pest or weed control at 250 g/ha was 70% in experiment [7]; 60% in [8]; 20% in the experiment with Avena fatua (AVEFA) [9]; 100% in [10]; 50% in the experiment with Setaria faberi (SETFA) [11]; 80% in the experiment on Lolium perenne (LOLPE) [12].

As for `Cc1ccc(-c2ccc(Cl)c(F)c2)cc1C1=C(O)C(C)(C)OC(C)(C)C1=O` [Compound A-47], the pest or weed control at 125 g/ha in [1] worked out at 100%; in experiment [2], 90%; with Avena fatua (AVEFA) [3] it was 90%; in experiment [4] it was 80%; in the experiment on Setaria faberi (SETFA) [5] it was 50%; in the experiment on Lolium perenne (LOLPE) [6] it was 70%. For the same compound, the pest or weed control at 250 g/ha in [7] came to 70%; in [8], 30%; in the experiment with Avena fatua (AVEFA) [9], 20%; in [10], 70%; in the experiment with Setaria faberi (SETFA) [11], 60%; in the experiment on Lolium perenne (LOLPE) [12] it was 30%.

On to `Cc1ccc(-c2ccc(Cl)c(Cl)c2)cc1C1=C(O)C(C)(C)OC(C)(C)C1=O` [Compound A-48], for which the pest or weed control at 125 g/ha in experiment [1] worked out at 40%; in [2], 70%; in the experiment on Avena fatua (AVEFA) [3], 40%; in [4] it was 40%; in the experiment on Setaria faberi (SETFA) [5], 40%; in the experiment with Lolium perenne (LOLPE) [6] it was 0%. For the same compound, the pest or weed control at 250 g/ha was 100% in experiment [7]; 30% in experiment [8]; 10% with Avena fatua (AVEFA) [9]; 60% in experiment [10]; 60% in the experiment with Setaria faberi (SETFA) [11]; 0% in the experiment on Lolium perenne (LOLPE) [12].

Regarding `COC(=O)OC1=C(c2cc(-c3ccc(Cl)cc3)ccc2C)C(=O)C(C)(C)OC1` [Compound D-5], the pest or weed control at 125 g/ha in experiment [1] amounted to 60%; in [2], 10%; in the experiment with Avena fatua (AVEFA) [3] it was 40%; in experiment [4] it was 20%; in the experiment with Setaria faberi (SETFA) [5], 70%; with Lolium perenne (LOLPE) [6] it was 40%. Moreover, the pest or weed control at 500 g/ha stood at 50% in experiment [7]; 0% in experiment [8]; 20% with Avena fatua (AVEFA) [9]; 60% in [10]; 20% in the experiment on Setaria faberi (SETFA) [11]; 0% with Lolium perenne (LOLPE) [12].

In the case of `Cc1ccc(-c2ccc(Cl)cc2)cc1C1=C(O)C(C)(C)OC(C)(C)C1=O` [Compound A-5], the pest or weed control at 125 g/ha in [1] was 100%; in [2], 70%; in the experiment with Avena fatua (AVEFA) [3] it was 70%; in experiment [4], 100%; in the experiment on Setaria faberi (SETFA) [5] it was 80%; in the experiment with Lolium perenne (LOLPE) [6] it was 70%. Besides, the pest or weed control at 500 g/ha in experiment [7] came to 100%; in [8] it was 60%; in the experiment with Avena fatua (AVEFA) [9], 50%; in [10] it was 100%; with Setaria faberi (SETFA) [11], 100%; in the experiment with Lolium perenne (LOLPE) [12], 50%.

For the compound `CCc1ccc(-c2ccc(Cl)cc2)cc1C1=C(O)C(C)(C)[S+]([O-])C(C)(C)C1=O` (stereo not drawn) [Compound C-2], the pest or weed control at 125 g/ha in experiment [1] worked out at 100%; in experiment [2] it was 70%; in the experiment with Avena fatua (AVEFA) [3] it was 70%; in experiment [4] it was 90%; in the experiment on Setaria faberi (SETFA) [5] it was 90%; in the experiment with Lolium perenne (LOLPE) [6], 60%. Further, the pest or weed control at 250 g/ha in experiment [7] came to 100%; in experiment [8], 10%; in the experiment with Avena fatua (AVEFA) [9], 10%; in experiment [10], 100%; in the experiment on Setaria faberi (SETFA) [11] it was 70%; in the experiment with Lolium perenne (LOLPE) [12], 10%.

For `Cc1ccc(-c2ccc(F)cc2)cc1C1=C(O)C(C)(C)OC(C)(C)C1=O` [Compound A-9], the pest or weed control at 125 g/ha in experiment [1] came out at 80%; in experiment [2], 50%; in the experiment with Avena fatua (AVEFA) [3], 0%; in [4], 80%; with Setaria faberi (SETFA) [5], 80%; in the experiment on Lolium perenne (LOLPE) [6], 30%. In addition, the pest or weed control at 500 g/ha is 50% in experiment [7]; 20% in [8]; 30% in the experiment on Avena fatua (AVEFA) [9]; 50% in experiment [10]; 60% in the experiment on Setaria faberi (SETFA) [11]; 20% in the experiment with Lolium perenne (LOLPE) [12].

For `CCc1ccc(-c2ccc(Cl)cc2)cc1C1=C(O)C(C)(C)OC(C)(CC)C1=O` (single isomer, unassigned) [Compound A-34], the pest or weed control at 125 g/ha in experiment [1] amounted to 100%; in [2], 70%; in the experiment on Avena fatua (AVEFA) [3], 20%; in experiment [4], 90%; with Setaria faberi (SETFA) [5] it was 90%; with Lolium perenne (LOLPE) [6] it was 80%. Further, the pest or weed control at 250 g/ha worked out at 100% in [7]; 60% in [8]; 50% in the experiment with Avena fatua (AVEFA) [9]; 100% in experiment [10]; 100% with Setaria faberi (SETFA) [11]; 100% with Lolium perenne (LOLPE) [12].
